Tested on: OPG (osteoprotegerin)
Assay: OPG (osteoprotegerin) expression in MG-63 cells, OPG ELISA of supernatant
Assay type: cell-based, human
Conditions: positive control, 20 mM
Procedure: The following three types of cells were used to investigate the effect of the herbal mixture extract or each independent herbal extract of the present invention on the proliferation of osteoblasts. A human osteosarcoma derived cell line MG-63 (ATCC No, CRL-1427) and a mouse muscle derived cell line C2C12 (ATCC No. CRL-1772) were distributed from American Type Culture Collection (ATCC, USA). The cells were cultured in DMEM (Gibco, BRL, USA) supplemented with 10% FBS (fetal bovine serum) in a 37° C. 5% CO2 incubator with 100% humidity.
MG-63 cell culture medium having approximately at the density of 10^6 cells/20 ml was removed from 100 mm cell culture dish. The dish was washed with 5 ml of DPBS (Dulbeco's modified phosphate buffered saline). The buffer was removed and 0.5 ml of trypsin-EDTA was spread on the culture dish, which stood in a CO2 incubator for one minute to take the cells off. The cells were put in 5 ml of DMEM supplemented with 10% FBS and mixed well. […] The numbers of cells were counted by haemacytometer and then distributed into a96-well plate at the concentration of 10^4 cells/well. […]
To increase reliability of the test results, positive control was treated with 20 mM CaCl2 to induce 2˜5 fold higher expression of OPG than in negative control. […] OPG ELISA kit (OCT) was used and optical density was measured at 450 nm. […]

## [Ca+2].[Cl-].[Cl-] [CaCl2]
  expression of OPG versus negative control: 2˜5 fold

Reference: patent US7794760B2, “Herbal mixture extract of Pleurotus eryngii, Acanthopanacis Cortex and Notoginseng Radix and a composition comprising the same for prevention and treatment of periodontitis” (Oscotec Inc., priority 2005, dated 2010)
